The target of test [1] is T1, human mAChR M1 (Homo sapiens, UniProt P11229).
T1 sequence (P11229 1-460): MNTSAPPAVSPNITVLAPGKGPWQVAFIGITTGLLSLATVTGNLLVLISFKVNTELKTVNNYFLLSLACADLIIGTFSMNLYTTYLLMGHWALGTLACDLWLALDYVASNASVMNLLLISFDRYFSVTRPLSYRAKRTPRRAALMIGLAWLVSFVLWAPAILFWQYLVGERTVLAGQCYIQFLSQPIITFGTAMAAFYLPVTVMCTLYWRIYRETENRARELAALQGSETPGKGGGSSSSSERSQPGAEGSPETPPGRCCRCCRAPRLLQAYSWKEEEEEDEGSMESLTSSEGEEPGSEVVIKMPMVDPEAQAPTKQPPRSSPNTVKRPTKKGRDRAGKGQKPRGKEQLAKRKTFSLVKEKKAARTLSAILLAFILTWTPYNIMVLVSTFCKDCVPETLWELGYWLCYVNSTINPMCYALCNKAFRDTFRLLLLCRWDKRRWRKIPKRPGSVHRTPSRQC
Description: mAChR M1 cell-based functional assay (calcium mobilization), PAM mode: increase in the EC20 acetylcholine response. In short, it runs like this: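 PAM readout is the concentration-dependent rise in the EC20 acetylcholine calcium signal, fitted to a four-parameter logistic (EC50, Emax). Compounds were preincubated from 4 s before ACh at 144 s (EC20) and 230 s (EC80). hM1-expressing CHO-K1 cells loaded with Fluo-4, FDSS ratio read.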
On the technique in general: Calcium assays in cells follow changes in intracellular calcium, usually with a dye or a luminescent sensor.

Test [2] concerns the target T1, human mAChR M1. As to the kind of experiment: mAChR M1 cell-based functional assay (calcium mobilization), agonist mode: compound alone, Emax relative to acetylcholine maximum. To be noted: for Agonist Activity Human M1 EC50 / EC50: human mAChR M1; for Emax: relative to the maximum for acetylcholine. In short, it runs like this: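 Agonist activity is the concentration-dependent rise in intracellular calcium (Fluo-4, 1 Hz read) after compound addition, measured before any acetylcholine was added, in stable hM1 CHO-K1 cells. Curves were 11-point, 1:3 dilutions fitted by four-parameter logistic. Emax is given as a fraction of maximal acetylcholine response.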

SMILES strings stand for the structures.

What is called EC50 is the concentration giving half of the maximal effect. As a reminder, the Emax is the size of the effect at its maximum, as opposed to the concentration needed. In the case of `[2H]C1([2H])c2ncccc2C(=O)N1Cc1c(F)cc(-c2ccc(OC(F)(F)F)c3nn(C([2H])([2H])[2H])cc23)cc1F` [Compound 104, 6-(2,6-difluoro-4-(2-(methyl-d3)-7-(trifluoromethoxy)-2H-indazol-4-yl)benzyl)-6,7-dihydro-5H-pyrrolo[3,4-b]pyridin-5-one-7,7-d2], on human mAChR M1 [1], the EC50 stood at 1170 nM and the Emax is 69%. Moreover, on human mAChR M1 [2], the “Agonist Activity Human M1 EC50” value is “Inactive” and the Emax is 2%.

On to `[2H]C1([2H])c2ncccc2C(=O)N1Cc1c(F)cc(-c2cc(F)c(F)c3nn(C)cc23)cc1F` [Compound 105, 6-(4-(6,7-difluoro-2-methyl-2H-indazol-4-yl)-2,6-difluorobenzyl)-6,7-dihydro-5H-pyrrolo[3,4-b]pyridin-5-one-7,7-d2], for which, on human mAChR M1 [1], the EC50 is 195 nM and the maximal effect (Emax) worked out at 27%. At human mAChR M1 [2], the “Agonist Activity Human M1 EC50” value is on record as “Inactive” and the Emax was 2%.

With `[2H]C1([2H])c2ncccc2C(=O)N1Cc1c(F)cc(-c2cc(F)c(F)c3nn(C([2H])([2H])[2H])cc23)cc1F` [Compound 106, 6-(4-(6,7-difluoro-2-(methyl-d3)-2H-indazol-4-yl)-2,6-difluorobenzyl)-6,7-dihydro-5H-pyrrolo[3,4-b]pyridin-5-one-7,7-d2], on human mAChR M1 [1], the EC50 amounted to 140 nM and the Emax was 30%. On human mAChR M1 [2], the “Agonist Activity Human M1 EC50” value is given as “Inactive” and the maximal response (Emax) is 2%.

Take `[2H]C([2H])([2H])Oc1ccc(-c2ccc(CN3C(=O)c4cccnc4C3([2H])[2H])c(F)c2)c2cn(C)nc12` [Compound 107, 6-(2-fluoro-4-(7-(methoxy-d3)-2-methyl-2H-indazol-4-yl)benzyl)-6,7-dihydro-5H-pyrrolo[3,4-b]pyridin-5-one-7,7-d2]: at human mAChR M1 [1], the EC50 was 227 nM and the Emax amounted to 74%. At human mAChR M1 [2], the EC50 was found to be 5460 nM and the Emax was determined as 16%.

On to `[2H]C1([2H])c2ncccc2C(=O)N1Cc1ccc(-c2ccc(OCC)c3nn(C)cc23)cc1F` [Compound 108, 6-(4-(7-ethoxy-2-methyl-2H-indazol-4-yl)-2-fluorobenzyl)-6,7-dihydro-5H-pyrrolo[3,4-b]pyridin-5-one-7,7-d2], for which, on human mAChR M1 [1], the EC50 came to 381 nM and the Emax turned out to be 74%. Moreover, at human mAChR M1 [2], the “Agonist Activity Human M1 EC50” value is given as “Inactive” and the Emax came out at 8%.

Regarding `[2H]C1([2H])c2ncccc2C(=O)N1Cc1ccc(-c2ccc(OC(C)C)c3nn(C)cc23)cc1F` [Compound 109, 6-(2-fluoro-4-(7-isopropoxy-2-methyl-2H-indazol-4-yl)benzyl)-6,7-dihydro-5H-pyrrolo[3,4-b]pyridin-5-one-7,7-d2], on human mAChR M1 [1], the EC50 stood at 167 nM and the Emax worked out at 73%. On human mAChR M1 [2], the half-maximal effective concentration (EC50) is 5430 nM and the Emax worked out at 17%.

Turning to `[2H]C1([2H])c2ncccc2C(=O)N1Cc1ccc(-c2ccc(OC(F)(F)F)c3nn(C)cc23)cc1F` [Compound 110, 6-(2-fluoro-4-(2-methyl-7-(trifluoromethoxy)-2H-indazol-4-yl)benzyl)-6,7-dihydro-5H-pyrrolo[3,4-b]pyridin-5-one-7,7-d2], at human mAChR M1 [1], the EC50 was found to be 1440 nM and the Emax came out at 71%. On human mAChR M1 [2], the “Agonist Activity Human M1 EC50” value is on record as “Inactive” and the Emax came to 4%.

As for `[2H]C([2H])([2H])Oc1cnc2c(c1)C(=O)N(Cc1ccc(-c3ccc4nn(C)cc4c3)cc1F)C2([2H])[2H]` [Compound 111, 6-(2-fluoro-4-(2-methyl-2H-indazol-5-yl)benzyl)-3-(methoxy-d3)-6,7-dihydro-5H-pyrrolo[3,4-b]pyridin-5-one-7,7-d2], at human mAChR M1 [1], the EC50 came out at 161 nM and the Emax was 65%. Besides, on human mAChR M1 [2], the “Agonist Activity Human M1 EC50” value is “Inactive” and the Emax amounted to 2%.

Consider `[2H]C([2H])([2H])Oc1cnc2c(c1)C(=O)N(Cc1c(F)cc(-c3ccc4nn(C)cc4c3)cc1F)C2([2H])[2H]` [Compound 112, 6-(2,6-difluoro-4-(2-methyl-2H-indazol-5-yl)benzyl)-3-(methoxy-d3)-6,7-dihydro-5H-pyrrolo[3,4-b]pyridin-5-one-7,7-d2], for which, at human mAChR M1 [1], the EC50 is 76 nM and the Emax is 63%. Moreover, on human mAChR M1 [2], the “Agonist Activity Human M1 EC50” value was “Inactive” and the Emax was determined as 2%.

Take `[2H]C1([2H])c2ncccc2C(=O)N1Cc1c(F)cc(-c2ccc(OCCOC)c3nn(C)cc23)cc1F` [Compound 113, 6-(2,6-difluoro-4-(7-(2-methoxyethoxy)-2-methyl-2H-indazol-4-yl)benzyl)-6,7-dihydro-5H-pyrrolo[3,4-b]pyridin-5-one-7,7-d2]: on human mAChR M1 [1], the EC50 amounted to 188 nM and the Emax stood at 75%. At human mAChR M1 [2], the EC50 came out at 5870 nM and the Emax turned out to be 41%.

Regarding `[2H]C1([2H])c2ncccc2C(=O)N1Cc1c(F)cc(-c2ccc(OCCOC)c3nn(C([2H])([2H])[2H])cc23)cc1F` [Compound 114, 6-(2,6-difluoro-4-(7-(2-methoxyethoxy)-2-(methyl-d3)-2H-indazol-4-yl)benzyl)-6,7-dihydro-5H-pyrrolo[3,4-b]pyridin-5-one-7,7-d2], at human mAChR M1 [1], the EC50 is 162 nM and the Emax came to 77%. For the same compound, on human mAChR M1 [2], the EC50 is 8010 nM and the Emax was determined as 43%.

For `[2H]C1([2H])c2ncccc2C(=O)N1Cc1c(F)cc(-c2cnc3nn(C([2H])([2H])[2H])cc3c2)cc1F` [Compound 115, 6-(2,6-difluoro-4-(2-(methyl-d3)-2H-pyrazolo[3,4-b]pyridin-5-yl)benzyl)-6,7-dihydro-5H-pyrrolo[3,4-b]pyridin-5-one-7,7-d2], at human mAChR M1 [1], the EC50 worked out at 680 nM and the Emax was found to be 68%. Also, on human mAChR M1 [2], the “Agonist Activity Human M1 EC50” value is recorded as “Inactive” and the Emax was determined as 6%.

As for `[2H]C1([2H])c2ncccc2C(=O)N1Cc1ccc(-c2ccc(OCCOC)c3nn(C)cc23)cc1F` [Compound 116, 6-(2-fluoro-4-(7-(2-methoxyethoxy)-2-methyl-2H-indazol-4-yl)benzyl)-6,7-dihydro-5H-pyrrolo[3,4-b]pyridin-5-one-7,7-d2], on human mAChR M1 [1], the EC50 turned out to be 287 nM and the Emax stood at 72%. Moreover, at human mAChR M1 [2], the 50% effective concentration (EC50) came to 9430 nM and the Emax was determined as 21%.

As for `[2H]C1([2H])c2ncccc2C(=O)N1Cc1ccc(-c2ccc(OCCOC)c3nn(C([2H])([2H])[2H])cc23)cc1F` [Compound 117, 6-(2-fluoro-4-(7-(2-methoxyethoxy)-2-(methyl-d3)-2H-indazol-4-yl)benzyl)-6,7-dihydro-5H-pyrrolo[3,4-b]pyridin-5-one-7,7-d2], on human mAChR M1 [1], the EC50 stood at 317 nM and the Emax is 70%. On human mAChR M1 [2], the EC50 was at least 10000 nM and the Emax was 21%.

As for `[2H]C1([2H])c2ncccc2C(=O)N1Cc1ccc(-c2cnc3nn(C([2H])([2H])[2H])cc3c2)cc1F` [Compound 118, 6-(2-fluoro-4-(2-(methyl-d3)-2H-pyrazolo[3,4-b]pyridin-5-yl)benzyl)-6,7-dihydro-5H-pyrrolo[3,4-b]pyridin-5-one-7,7-d2], at human mAChR M1 [1], the EC50 was 527 nM and the Emax came out at 66%. For the same compound, at human mAChR M1 [2], the EC50 was at least 10000 nM and the Emax turned out to be 16%.

In the case of `[2H]C1([2H])c2ncccc2C(=O)N1Cc1c(F)cc(-c2cncc3nn(C)cc23)cc1F` [Compound 119, 6-(2,6-difluoro-4-(2-methyl-2H-pyrazolo[3,4-c]pyridin-4-yl)benzyl)-6,7-dihydro-5H-pyrrolo[3,4-b]pyridin-5-one-7,7-d2], at human mAChR M1 [1], the EC50 was at least 10000 nM and the Emax was determined as 63%. Further, at human mAChR M1 [2], the “Agonist Activity Human M1 EC50” value was “Inactive” and the maximal effect (Emax) came out at 3%.

For `[2H]C1([2H])c2ncccc2C(=O)N1Cc1ccc(-c2cncc3nn(C)cc23)cc1F` [Compound 120, 6-(2-fluoro-4-(2-methyl-2H-pyrazolo[3,4-c]pyridin-4-yl)benzyl)-6,7-dihydro-5H-pyrrolo[3,4-b]pyridin-5-one-7,7-d2], at human mAChR M1 [1], the concentration giving a half-maximal response (EC50) came to 2820 nM and the Emax turned out to be 66%. Further, at human mAChR M1 [2], the “Agonist Activity Human M1 EC50” value is listed as “Inactive” and the Emax worked out at 2%.

As for `[2H]C1([2H])c2ncccc2C(=O)N1Cc1c(F)cc(-c2cnc(OC)c3nn(C)cc23)cc1F` [Compound 121, 6-(2,6-difluoro-4-(7-methoxy-2-methyl-2H-pyrazolo[3,4-c]pyridin-4-yl)benzyl)-6,7-dihydro-5H-pyrrolo[3,4-b]pyridin-5-one-7,7-d2], at human mAChR M1 [1], the EC50 is 2920 nM and the Emax was found to be 55%. For the same compound, on human mAChR M1 [2], the “Agonist Activity Human M1 EC50” value is given as “Inactive” and the Emax was 3%.

As for `[2H]C1([2H])c2ncccc2C(=O)N1Cc1c(F)cc(-c2ccc(C3CC3)c3nn(C)cc23)cc1F` [Compound 122, 6-(4-(7-cyclopropyl-2-methyl-2H-indazol-4-yl)-2,6-difluorobenzyl)-6,7-dihydro-5H-pyrrolo[3,4-b]pyridin-5-one-7,7-d2], on human mAChR M1 [1], the EC50 turned out to be 789 nM and the maximal effect (Emax) was 77%. Moreover, at human mAChR M1 [2], the “Agonist Activity Human M1 EC50” value is “Inactive” and the Emax worked out at 3%.

For the origin of these results see US20240228489A1, “POSITIVE ALLOSTERIC MODULATORS OF THE MUSCARINIC ACETYLCHOLINE RECEPTOR M1” (Vanderbilt University, priority 2021, published 2024).
